Consider 24 molecules from patent US12435061B2 (priority 2020, dated 2025).

The assay has as its target hTRPV3 (Homo sapiens (Human), UniProt Q8NET8). In words: Whole-cell patch clamp, hTRPV3 Phase 1 / Phase 2 currents. The format is cell-based. An outline of the steps: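 Currents are activated by 20 μM 2-APB or by perfusate at 28 °C or warmer, in Ringer's solution, and quantified at ±80 mV.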
A general note: Patch clamp records ionic current or voltage across a cell membrane.

Where [1] appears, read: Phase 1 current, inward, whole-cell patch clamp, read-out: hTRPV3 Patch P1 Inwd.
The mark [2] stands for this setting: Phase 1 current, read-out: hTRPV3 (nM) (Phase 1).
The mark [3] stands for this setting: Phase 2 current, inward, whole-cell patch clamp, read-out: hTRPV3 Patch P2 Inwd.
Setting [4] is: Phase 2 current, read-out: hTRPV3 (nM) (Phase 2).
[5] abbreviates: Phase 1 current, human TRPV3, read-out: hTRPV3 (nM) Phase 1.

Where a name gives a salt, the structure may show the parent alone. Read-outs that look alike come from different tables or passages of the source.

hTRPV3, sequence (Q8NET8 whole entry): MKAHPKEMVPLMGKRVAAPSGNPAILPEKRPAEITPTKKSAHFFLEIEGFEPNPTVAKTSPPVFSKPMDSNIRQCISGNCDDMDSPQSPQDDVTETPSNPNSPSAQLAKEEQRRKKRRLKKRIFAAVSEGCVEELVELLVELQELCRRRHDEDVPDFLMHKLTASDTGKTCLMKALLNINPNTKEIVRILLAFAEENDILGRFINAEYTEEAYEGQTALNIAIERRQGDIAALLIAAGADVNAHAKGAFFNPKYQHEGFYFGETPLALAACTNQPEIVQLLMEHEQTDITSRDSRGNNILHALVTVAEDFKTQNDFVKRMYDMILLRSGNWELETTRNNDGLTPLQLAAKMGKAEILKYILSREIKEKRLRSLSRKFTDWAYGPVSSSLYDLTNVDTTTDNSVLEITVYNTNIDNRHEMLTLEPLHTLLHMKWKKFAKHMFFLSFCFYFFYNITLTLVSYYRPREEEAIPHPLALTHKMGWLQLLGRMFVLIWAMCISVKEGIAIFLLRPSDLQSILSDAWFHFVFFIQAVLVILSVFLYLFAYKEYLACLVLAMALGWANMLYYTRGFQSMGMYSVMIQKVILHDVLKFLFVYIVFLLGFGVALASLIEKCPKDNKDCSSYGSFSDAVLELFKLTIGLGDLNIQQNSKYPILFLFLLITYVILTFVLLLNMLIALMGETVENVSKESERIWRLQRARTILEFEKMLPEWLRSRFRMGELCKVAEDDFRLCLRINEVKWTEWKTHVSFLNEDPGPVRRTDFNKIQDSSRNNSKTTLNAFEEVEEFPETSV

For the molecule `COc1cc(-c2ccccc2Cl)ccc1N1CC[C@@H](Oc2ccc(C(F)(F)F)cn2)C1` [Compound 1-112, (R)-2-(1-(2′-chloro-3-methoxybiphenyl-4-yl)pyrrolidin-3-yloxy)-5-(trifluoromethyl)pyridine], the IC50 under setting [1] was over 1000 nM and the IC50 under setting [2] was about 2900 nM. In addition, the “hTRPV3 (nM) (Phase 2)” value (Phase 2 current) was “Incomplete Block”.
Turning to `Cc1cccnc1O[C@H]1CCN(c2ccc(-c3ccccc3)cc2CCO)C1` [Compound 1-193, (S)-2-(4-(3-(3-methylpyridin-2-yloxy)pyrrolidin-1-yl)biphenyl-3-yl)ethanol], the IC50 runs as follows: under setting [1], 100 to 1000 nM; under setting [2], 260 nM.
With `O=C1C(Oc2ccc3ccccc3n2)CCN1c1ccccc1Cl` (stereo not drawn) [Compound 1-106, 1-(2-chlorophenyl)-3-(quinolin-2-yloxy)pyrrolidin-2-one], the IC50 by setting is: under setting [1], over 1000 nM; under setting [2], over 3200 nM; under setting [3], over 1000 nM; under setting [4], over 3200 nM.
For the molecule `O=C(O)c1cc(-c2ccccc2)ccc1N1CC[C@H](Oc2ccc(C(F)(F)F)cn2)C1` [Compound 1-165, (S)-4-(3-(5-(trifluoromethyl)pyridin-2-yloxy)pyrrolidin-1-yl)biphenyl-3-carboxylic acid], the IC50 was over 1000 nM under setting [1] and over 3200 nM under setting [2].
With `CC(C)c1ccccc1-c1ccc(C2CCN(C(=O)c3ccccn3)C2)c(C(N)=O)c1` (stereo not drawn) [Compound 2-45], the IC50 is 929 nM under setting [5] and 100 to 1000 nM under setting [1].
On to `CC(C)(C)OC(=O)N1CCC(c2ccc(N3CC[C@H](Oc4ccc(C(F)(F)F)cn4)C3)c(CCO)c2)CC1` [Compound 1-301, (S)-tert-butyl 4-(3-(2-hydroxyethyl)-4-(3-(5-(trifluoromethyl)pyridin-2-yloxy)pyrrolidin-1-yl)phenyl)piperidine-1-carboxylate], for which the IC50 reads like this: under setting [1], over 1000 nM; under setting [2], about 2980 nM.
With `NC(=O)c1ccc(O[C@H]2CCN(c3ccc(-c4ccccc4)cc3CO)C2)nc1` [Compound 1-144, (S)-6-(1-(3-(hydroxymethyl)biphenyl-4-yl)pyrrolidin-3-yloxy)nicotinamide], the IC50 is, setting by setting: under setting [1], over 1000 nM; under setting [2], 1280 nM; under setting [3], over 1000 nM; under setting [4], 4220 nM.
Take `Cc1cccc(C(O)c2ccc(C3CCN(C(=O)c4ncccc4Cl)C3)c(CO)c2)c1` (stereo not drawn) [Compound 2-2, (3-chloropyridin-2-yl)(3-(4-(hydroxy(m-tolyl)methyl)-2-(hydroxymethyl)phenyl)pyrrolidin-1-yl)methanone]: the IC50 under setting [1] was in the range of 100 to 1000 nM.
For `O=C(c1ccc(CCO)c(N2CC[C@H](Oc3ncccc3Cl)C2)c1)c1ccccc1Cl` [Compound 1-360, (S)-(2-chlorophenyl)(3-(3-(3-chloropyridin-2-yloxy)pyrrolidin-1-yl)-4-(2-hydroxyethyl)phenyl)methanone], the IC50 is 100 to 1000 nM under setting [1] and 770 nM under setting [2].
Regarding `N#Cc1ccccc1N1CC[C@H](Oc2ccc(C(F)(F)F)cn2)C1` [Compound 1-11, (S)-2-(3-(5-(trifluoromethyl)pyridin-2-yloxy)pyrrolidin-1-yl)benzonitrile], the IC50 under setting [1] is over 1000 nM.
As for `NC(=O)c1cc(-c2ccccc2)ccc1N1CC[C@@H](Oc2ccc3cc(Cl)ccc3n2)C1` [Compound 1-86, (R)-4-(3-(6-chloroquinolin-2-yloxy)pyrrolidin-1-yl)biphenyl-3-carboxamide], the IC50 by setting is: under setting [3], over 1000 nM; under setting [4], over 3200 nM.
Turning to `O=C(c1cccc(F)c1)c1ccc(N2CC[C@H](Oc3ncccc3Cl)C2)c(CCO)c1` [Compound 1-311, (S)-(4-(3-(3-chloropyridin-2-yloxy)pyrrolidin-1-yl)-3-(2-hydroxyethyl)phenyl)(3-fluorophenyl)methanone], the IC50 is 100 to 1000 nM under setting [1] and 417 nM under setting [2].
For `O=C1C(Oc2ccc3ccccc3n2)CCN1c1ccccc1` (stereo not drawn) [Compound 1-104, 1-phenyl-3-(quinolin-2-yloxy)pyrrolidin-2-one] the same measures were over 1000 nM and over 3200 nM.
As to `NC(=O)c1ccc(-c2ccc(N3CC[C@H](Oc4ccc(C(F)(F)F)cn4)C3)c(CO)c2)cc1` [Compound 1-253, (S)-3′-(hydroxymethyl)-4′-(3-(5-(trifluoromethyl)pyridin-2-yloxy)pyrrolidin-1-yl)biphenyl-4-carboxamide], the IC50 under setting [1] was over 1000 nM and the IC50 under setting [2] is over 3200 nM.
With `OCc1cc(Oc2ccccc2F)ccc1N1CC[C@H](Oc2ccccn2)C1` [Compound 1-333], the IC50 by setting is: under setting [1], 100 to 1000 nM; under setting [2], 207 nM; under setting [3], 100 to 1000 nM; under setting [4], 111 nM.
As to `OCc1cc(C(O)c2ccc(F)cc2)ccc1N1CC[C@H](Oc2ncccc2Cl)C1` (stereo partly drawn) [Compound 1-278, (4-((S)-3-(3-chloropyridin-2-yloxy)pyrrolidin-1-yl)-3-(hydroxymethyl)phenyl)(4-fluorophenyl)methanol], the IC50 under setting [1] lay in the range of 100 to 1000 nM and the IC50 under setting [2] was 254 nM.
For `Cc1cccc(C(O)c2ccc(N3CC[C@H](Oc4ncccc4Cl)C3)c(CO)c2)c1` (stereo partly drawn) [Compound 1-281, (4-((S)-3-(3-chloropyridin-2-yloxy)pyrrolidin-1-yl)-3-(hydroxymethyl)phenyl)(m-tolyl)methanol] the same measures were over 1000 nM and 1100 nM.
For `CC(C)c1ccccc1Oc1ccc(N2CC[C@H](Oc3ncccc3F)C2)c(CCO)c1` [Compound 1-331, (S)-2-(2-(3-(3-fluoropyridin-2-yloxy)pyrrolidin-1-yl)-5-(2-isopropylphenoxy)phenyl)ethanol] the same measures were 10 to 100 nM and 28 nM.
Consider `NCc1ccccc1N1CC[C@H](Oc2ccc(C(F)(F)F)cn2)C1` [Compound 1-13, (S)-(2-(3-(5-(trifluoromethyl)pyridin-2-yloxy)pyrrolidin-1-yl)phenyl)methanamine HCl salt], for which the IC50 by setting is: under setting [1], over 1000 nM; under setting [3], over 1000 nM.
Take `Cc1cc(C(=O)N2CCC(c3ccc(-c4ccccc4C4CC4)cc3CO)C2)no1` (stereo not drawn) [Compound 2-123]: under setting [5], the IC50 worked out at 62.9 nM.
Take `OCCc1ccc(C(O)c2ccccc2Cl)cc1N1CC[C@H](Oc2ncccc2Cl)C1` (stereo partly drawn) [Compound 1-354, 2-(4-((2-chlorophenyl)(hydroxy)methyl)-2-((S)-3-(3-chloropyridin-2-yloxy)pyrrolidin-1-yl)phenyl)ethanol]: the IC50 runs as follows: under setting [1], over 1000 nM; under setting [2], 1010 nM.
Regarding `Cc1ccc(C(=O)c2ccc(N3CC[C@H](Oc4ncccc4F)C3)c(CCO)c2)cc1` [Compound 1-309, (S)-(4-(3-(3-fluoropyridin-2-yloxy)pyrrolidin-1-yl)-3-(2-hydroxyethyl)phenyl)(p-tolyl)methanone], the IC50 under setting [1] is over 1000 nM, the IC50 under setting [2] is about 2080 nM, the IC50 under setting [3] was 100 to 1000 nM and the IC50 under setting [4] came to 822 nM.
On to `NC(=O)c1nc(-c2ccccc2)ccc1N1CC[C@@H](Oc2ccc(C(F)(F)F)cn2)C1` [Compound 1-98, (R)-6-phenyl-3-(3-(5-(trifluoromethyl)pyridin-2-yloxy)pyrrolidin-1-yl)picolinamide], for which the IC50 under setting [1] was in the range of 100 to 1000 nM and the IC50 under setting [2] is 479 nM.
Turning to `COc1ccccc1Oc1ccc(N2CC[C@H](Oc3ccccn3)C2)c(CO)c1` [Compound 1-339, (S)-(5-(2-methoxyphenoxy)-2-(3-(pyridin-2-yloxy)pyrrolidin-1-yl)phenyl)methanol], the IC50 is 100 to 1000 nM under setting [1] and 521 nM under setting [2].
